# Results from ChEMBL document CHEMBL1201862, “PubChem BioAssay data set” (2004).
# Calls of active or inactive are those of the source.
# Columns and labels:
# [1] = target: T1, Apoptotic protease-activating factor 1 (Homo sapiens, UniProt O14727); assay type: functional
# T1 sequence (O14727 whole entry): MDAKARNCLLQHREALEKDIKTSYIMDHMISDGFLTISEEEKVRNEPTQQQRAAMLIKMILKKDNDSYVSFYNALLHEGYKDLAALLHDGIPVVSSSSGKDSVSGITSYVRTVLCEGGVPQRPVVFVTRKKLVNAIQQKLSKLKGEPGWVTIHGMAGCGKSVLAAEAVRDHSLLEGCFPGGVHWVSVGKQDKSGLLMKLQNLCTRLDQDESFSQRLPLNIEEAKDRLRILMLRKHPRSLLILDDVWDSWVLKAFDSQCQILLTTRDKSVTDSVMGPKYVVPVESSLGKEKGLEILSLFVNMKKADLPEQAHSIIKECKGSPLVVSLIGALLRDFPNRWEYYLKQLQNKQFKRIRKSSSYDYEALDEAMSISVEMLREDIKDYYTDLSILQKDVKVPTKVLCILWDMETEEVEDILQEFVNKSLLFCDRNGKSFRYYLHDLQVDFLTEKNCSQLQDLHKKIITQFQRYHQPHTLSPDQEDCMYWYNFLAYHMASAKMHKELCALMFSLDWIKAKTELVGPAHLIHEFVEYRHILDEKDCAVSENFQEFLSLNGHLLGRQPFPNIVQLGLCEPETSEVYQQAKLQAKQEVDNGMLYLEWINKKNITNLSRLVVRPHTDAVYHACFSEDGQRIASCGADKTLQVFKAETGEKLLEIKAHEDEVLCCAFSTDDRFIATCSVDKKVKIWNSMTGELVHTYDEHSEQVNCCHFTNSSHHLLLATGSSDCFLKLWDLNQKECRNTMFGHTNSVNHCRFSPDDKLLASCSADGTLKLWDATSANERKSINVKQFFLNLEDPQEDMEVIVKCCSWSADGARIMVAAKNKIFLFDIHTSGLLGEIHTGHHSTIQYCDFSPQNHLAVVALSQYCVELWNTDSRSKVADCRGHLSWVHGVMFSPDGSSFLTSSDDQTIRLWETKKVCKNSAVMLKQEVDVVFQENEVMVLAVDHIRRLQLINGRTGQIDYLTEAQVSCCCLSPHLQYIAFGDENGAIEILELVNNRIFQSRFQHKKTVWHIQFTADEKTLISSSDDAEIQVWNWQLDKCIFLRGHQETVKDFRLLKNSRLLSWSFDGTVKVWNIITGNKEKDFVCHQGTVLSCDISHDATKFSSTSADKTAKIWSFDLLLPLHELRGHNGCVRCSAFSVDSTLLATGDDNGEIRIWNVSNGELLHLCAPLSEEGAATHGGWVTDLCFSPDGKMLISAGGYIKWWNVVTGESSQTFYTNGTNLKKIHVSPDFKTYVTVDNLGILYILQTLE
# [2] = target: T2, Histone-lysine N-methyltransferase NSD2 (Homo sapiens, UniProt O96028); assay type: biochemical
# T2 sequence (O96028 whole entry): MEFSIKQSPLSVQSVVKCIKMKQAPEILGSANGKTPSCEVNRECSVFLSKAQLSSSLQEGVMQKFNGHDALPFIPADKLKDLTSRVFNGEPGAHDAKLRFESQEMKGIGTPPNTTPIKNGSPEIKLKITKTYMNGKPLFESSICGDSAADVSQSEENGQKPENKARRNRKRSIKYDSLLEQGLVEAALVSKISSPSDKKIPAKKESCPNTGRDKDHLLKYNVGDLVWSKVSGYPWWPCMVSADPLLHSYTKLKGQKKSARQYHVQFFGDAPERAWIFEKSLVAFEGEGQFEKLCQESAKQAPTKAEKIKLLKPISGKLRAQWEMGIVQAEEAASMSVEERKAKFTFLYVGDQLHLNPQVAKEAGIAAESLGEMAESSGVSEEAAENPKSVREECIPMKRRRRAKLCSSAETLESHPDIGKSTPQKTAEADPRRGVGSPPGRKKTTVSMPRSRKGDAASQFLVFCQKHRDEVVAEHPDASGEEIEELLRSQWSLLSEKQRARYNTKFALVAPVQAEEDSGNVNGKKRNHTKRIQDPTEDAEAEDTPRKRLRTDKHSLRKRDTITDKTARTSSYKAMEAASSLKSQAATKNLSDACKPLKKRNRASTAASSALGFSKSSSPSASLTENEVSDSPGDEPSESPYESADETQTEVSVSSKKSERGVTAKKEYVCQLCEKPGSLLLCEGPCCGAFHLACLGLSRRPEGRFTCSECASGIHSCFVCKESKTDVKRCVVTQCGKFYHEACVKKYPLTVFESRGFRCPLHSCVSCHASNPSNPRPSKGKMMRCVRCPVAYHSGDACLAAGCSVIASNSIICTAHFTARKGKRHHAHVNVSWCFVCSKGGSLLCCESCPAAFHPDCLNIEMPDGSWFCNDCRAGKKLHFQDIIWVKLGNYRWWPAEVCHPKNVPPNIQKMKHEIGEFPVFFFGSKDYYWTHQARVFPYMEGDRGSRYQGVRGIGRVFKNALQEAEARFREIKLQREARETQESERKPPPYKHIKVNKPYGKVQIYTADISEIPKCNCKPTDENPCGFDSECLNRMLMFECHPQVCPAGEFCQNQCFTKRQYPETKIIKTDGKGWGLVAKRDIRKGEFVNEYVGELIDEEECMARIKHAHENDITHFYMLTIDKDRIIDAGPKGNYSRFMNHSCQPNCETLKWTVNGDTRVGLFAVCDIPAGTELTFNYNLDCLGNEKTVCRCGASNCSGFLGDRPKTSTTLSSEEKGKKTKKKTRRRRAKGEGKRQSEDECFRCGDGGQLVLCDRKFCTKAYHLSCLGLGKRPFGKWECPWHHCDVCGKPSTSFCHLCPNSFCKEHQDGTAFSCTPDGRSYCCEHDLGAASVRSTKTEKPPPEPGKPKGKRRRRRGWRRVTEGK
Compound,IC50 [1],AC50 [2]
CCC(=O)N(C1=C(NC)C(=O)c2ccccc2C1=O)C(C)C,20.8 µM (active),–
CC1CC(C)CN(C(=O)c2ccc3c(c2NCCO)C(=O)c2ccccc2C3=O)C1 (configuration not stated),–,19.3 µM (active)
